Among the data in patent publication EP4813978A1, “COMPOUND TARGETING UBIQUITIN KRAS PROTEIN DEGRADATION AGENT, AND USE THEREOF” (Betta Pharmaceuticals Co., Ltd, priority 2023, dated 2025) are IC50 values, retold here.

What all share (assay type): cell-based
Experiment [1] has as its system AGS. The experiment can be described thus: Cell proliferation assay (Cell-titer Glo), AGS. As to conditions: KRAS G12D, 96 h. As to the method: (§1) Cells with different mutations were seeded in low-attachment transparent 96-well plates at the seeding densities shown in Table 1, and incubated overnight in a cell culture incubator. After the cells adhered, the test compounds were added to the 96-well plates at final concentrations of 20000 nM, 5000 nM, 1250 nM, 312.5 nM, 78.13 nM, 19.53 nM, 4.88 nM, 1.22 nM, 0.31 nM, 0 nM (the final concentration of DMSO was 0.25% in all wells). After culturing at 37°C for 96 h, 50 µL of Cell-titer Glo working solution was added to each well. The plates were shaken to mix and then incubated at room temperature for 10 min. Luminescence values were read on a multimode microplate reader, and the luminescence data were converted into percentage inhibition. The percentage of cell proliferation inhibition was calculated according to the following formula: Percentage inhibition = (1−(TestValue−Blank)/(MaxValue−Blank)) × 100% [formula]
(§2) ("Max value" is from the 0.25% DMSO control wells, "Blank" is from the blank medium control wells, and "Test Value" is from the compound-treated wells).
(§3) Curve fitting was performed using GraphPad Prism software to obtain IC50 (nM) values.

Experiment [2] relates to SW620. Kind of experiment: Cell proliferation assay (Cell-titer Glo), SW620. As to conditions: Homo sapiens, SW-620, SW620, KRAS G12V, 96 h. As to the method: as §1, §2, §3
Experiment [3] relates to H358. Kind of experiment: Cell proliferation assay (Cell-titer Glo), H358. As to conditions: Homo sapiens, NCI-H358, H358, KRAS G12C, 96 h. How it is done:
as §1, §2, §3

The subject of experiment [4] is Mia-Paca2. The experiment can be described thus: Cell proliferation assay (Cell-titer Glo), Mia-Paca2. As to conditions: 96 h. How it is done: as §1, §2, §3
The mark [5] stands for this setting: Homo sapiens, MIA PaCa-2, Mia-Paca2, KRAS G12C.

The IC50 is the concentration needed to halve the response being measured. As for `CCc1c(F)ccc2cc(O)cc(-c3nc4c5c(nc(OCC6(CN7CCC(Oc8cnc(-c9cn([C@H](C(=O)N%10C[C@H](O)C[C@H]%10C(=O)N[C@@H](C)c%10ccc(-c%11scnc%11C)cc%10)C(C)C)nn9)cn8)CC7)CC6)nc5c3F)N3CCCC(C)(O)C3CO4)c12` (stereo partly drawn) [Compound 133, (2S,4R)-1-((2S)-2-(4-(5-((1-((1-(((5-(8-ethyl-7-fluoro-3-hydroxynaphthalen-1-yl)-4-fluoro-9-hydroxy-9-methyl-8,8a,9,10,11,12-hexahydro-7-oxa-1,3,6,12a-tetraazabenzo[4,5]cyclohepta[1,2,3-de]naphthalen-2-yl)oxy)methyl)cyclopropyl)methyl)piperidin-4-yl)oxy)pyrazin-2-yl)-1H-1,2,3-triazol-1-yl)-3-methylbutanoyl)-4-hydroxy-N-((S)-1-(4-(4-methylthiazol-5-yl)phenyl)ethyl)pyrrolidine-2-carboxamide], the IC50 worked out at 15 nM in experiment [1] (Homo sapiens), 36 nM in experiment [2], 40 nM in experiment [3] and 26 nM in experiment [4] (setting [5]).

Turning to `CCc1c(F)ccc2cc(O)cc(-c3ncc4c(N5CCCCC(=O)C5)nc(OCC5(CN6CCC(Oc7cnc(-c8cn([C@H](C(=O)N9C[C@H](O)C[C@H]9C(=O)N[C@@H](C)c9ccc(-c%10scnc%10C)cc9)C(C)C)nn8)cn7)CC6)CC5)nc4c3F)c12` [Compound 113, (2S,4R)-1-((S)-2-(4-(5-((1-((1-(((7-(8-ethyl-7-fluoro-3-hydroxynaphthalen-1-yl)-8-fluoro-4-(3-oxoazepan-1-yl)pyrido[4,3-d]pyrimidin-2-yl)oxy)methyl)cyclopropyl)methyl)piperidin-4-yl)oxy)pyrazin-2-yl)-1H-1,2,3-triazol-1-yl)-3-methylbutanoyl)-4-hydroxy-N-((S)-1-(4-(4-methylthiazol-5-yl)phenyl)ethyl)pyrrolidine-2-carboxamide], the results for the IC50 in experiment [1] (Homo sapiens) and in experiment [2] were 80 nM and 325 nM, respectively.

In the case of `CCc1c(F)ccc2cc(O)cc(-c3ncc4c(N5CCC[C@](O)(CC#N)C5)nc(OCC5(CN6CCC(Oc7cnc(-c8cn([C@H](C(=O)N9C[C@H](O)C[C@H]9C(=O)N[C@@H](C)c9ccc(-c%10scnc%10C)cc9)C(C)C)nn8)cn7)CC6)CC5)nc4c3F)c12` [Compound 57, (2S,4R)-1-((S)-2-(4-(5-((1-((1-(((4-((S)-3-(cyanomethyl)-3-hydroxypiperidin-1-yl)-7-(8-ethyl-7-fluoro-3-hydroxynaphthalen-1-yl)-8-fluoropyrido[4,3-d]pyrimidin-2-yl)oxy)methyl)cyclopropyl)methyl)piperidin-4-yl)oxy)pyrazin-2-yl)-1H-1,2,3-triazol-1-yl)-3-methylbutanoyl)-4-hydroxy-N-((S)-1-(4-(4-methylthiazol-5-yl)phenyl)ethyl)pyrrolidine-2-carboxamide], the IC50 came to 5 nM in experiment [1] (Homo sapiens), 18 nM in experiment [2] and 20 nM in experiment [3].

Consider `CCc1c(F)ccc2cc(O)cc(-c3ncc4c(N5CCCC6(CCO6)C5)nc(OCC5(CN6CCN(c7ccc(-c8cn([C@H](C(=O)N9C[C@H](O)C[C@H]9C(=O)N[C@@H](C)c9ccc(-c%10scnc%10C)cc9)C(C)C)nn8)cn7)CC6)CC5)nc4c3F)c12` (stereo partly drawn) [Compound 111, (2S,4R)-1-((2S)-2-(4-(6-(4-((1-(((7-(8-ethyl-7-fluoro-3-hydroxynaphthalen-1-yl)-8-fluoro-4-(1-oxa-6-azaspiro[3.5]nonan-6-yl)pyrido[4,3-d]pyrimidin-2-yl)oxy)methyl)cyclopropyl)methyl)piperazin-1-yl)pyridin-3-yl)-1H-1,2,3-triazol-1-yl)-3-methylbutanoyl)-4-hydroxy-N-((S)-1-(4-(4-methylthiazol-5-yl)phenyl)ethyl)pyrrolidine-2-carboxamide], for which the IC50 in experiment [1] (Homo sapiens) was determined as 30 nM; in experiment [2], 43 nM; in experiment [3], 56 nM.

As for `CCc1c(F)ccc2cc(O)cc(-c3ncc4c(N5CCOC[C@@](C)(O)C5)nc(OCC5(CN6CCC(Oc7cnc(-c8cn([C@H](C(=O)N9C[C@H](O)C[C@H]9C(=O)N[C@@H](C)c9ccc(-c%10scnc%10C)cc9)C(C)C)nn8)cn7)CC6)CC5)nc4c3F)c12` [Compound 114, (2S,4R)-1-((S)-2-(4-(5-((1-((1-(((7-(8-ethyl-7-fluoro-3-hydroxynaphthalen-1-yl)-8-fluoro-4-((S)-6-hydroxy-6-methyl-1,4-oxazepan-4-yl)pyrido[4,3-d]pyrimidin-2-yl)oxy)methyl)cyclopropyl)methyl)piperidin-4-yl)oxy)pyrazin-2-yl)-1H-1,2,3-triazol-1-yl)-3-methylbutanoyl)-4-hydroxy-N-((S )-1-(4-(4-methylthiazol-5-yl)phenyl)ethyl)pyrrolidine-2-carboxamide], the IC50 in experiment [1] (Homo sapiens) was 2.7 nM; in experiment [2], 10 nM.

As for `CCc1c(F)ccc2cc(O)cc(-c3ncc4c(N5CCCS(=O)(=O)C5)nc(OCC5(CN6CCC(Oc7cnc(-c8cn([C@H](C(=O)N9C[C@H](O)C[C@H]9C(=O)N[C@@H](C)c9ccc(-c%10scnc%10C)cc9)C(C)C)nn8)cn7)CC6)CC5)nc4c3F)c12` [Compound 7, (2S,4R)-1-((S)-2-(4-(5-((1-((1-(((4-(1,1-dioxido-1,3-thiazinan-3-yl)-7-(8-ethyl-7-fluoro-3-hydroxynaphthalen-1-yl)-8-fluoropyrido[4,3-d]pyrimidin-2-yl)oxy)methyl)cyclopropyl)methyl)piperidin-4-yl)oxy)pyrazin-2-yl)-1H-1,2,3-triazol-1-yl)-3-methylbutanoyl)-4-hydroxy-N-((S)-1-(4-(4-methylthiazol-5-yl)phenyl)ethyl)pyrrolidine-2-carboxamide], the figures for the IC50 in experiment [1] (Homo sapiens) and in experiment [2] were 6.2 nM and 31 nM, respectively.

As to `CCc1c(F)ccc2cc(O)cc(-c3ncc4c(N5CCCOCC5)nc(OCC5(CN6CCC(Oc7cnc(-c8cn([C@H](C(=O)N9C[C@H](O)C[C@H]9C(=O)N[C@@H](C)c9ccc(-c%10scnc%10C)cc9)C(C)C)nn8)cn7)CC6)CC5)nc4c3F)c12` [Compound 5, (2S,4R)-1-((S)-2-(4-(5-((1-((1-(((7-(8-ethyl-7-fluoro-3-hydroxynaphthalen-1-yl)-8-fluoro-4-(1,4-oxazepan-4-yl)pyrido[4,3-d]pyrimidin-2-yl)oxy)methyl)cyclopropyl)methyl)piperidin-4-yl)oxy)pyrazin-2-yl)-1H-1,2,3-triazol-1-yl)-3-methylbutanoyl)-4-hydroxy-N-((S)-1-(4-(4-methylthiazol-5-yl)phenyl)ethyl)pyrrolidine-2-carboxamide], the IC50 in experiment [1] (Homo sapiens) was determined as 20 nM; in experiment [2] it was 34 nM; in experiment [3] it was 55 nM.

For the compound “(2S,4R)-1-((2S)-2-(4-(5-((1-((1-(((7-(8-ethyl-7-fluoro-3-hydroxynaphthalen-1-yl)-8-fluoro-4-(3-h ydroxy-3-methylazepan-1-yl)pyrido[4,3-d]pyrimidin-2-yl)oxy)methyl)cyclopropyl)methyl)piperi din-4-yl)oxy)pyrazin-2-yl)-1H-1,2,3-triazol-1-yl)-3-methylbutanoyl)-4-hydroxy-N-((S)-1-(4-(4-methylthiazol-5-yl)phenyl)ethyl)pyrrolidine-2-carboxamide [Compound 134]”, the IC50 in experiment [1] amounted to 34 nM; in experiment [4] (Mia-Paca2, KRAS G12C), 67 nM.

Consider `CCc1c(F)ccc2cc(O)cc(-c3ncc4c(N5CCOC[C@@](C)(O)C5)nc(OCC5(CN6CCC(Oc7cnc(-c8cn([C@H](C(=O)N9C[C@H](O)C[C@H]9C(=O)N[C@@H](CN(C)C)c9ccc(-c%10scnc%10C)cc9)C(C)C)nn8)cn7)CC6)CC5)nc4c3F)c12` [Compound 131, (2S,4R)-N-((R)-2-(dimethylamino)-1-(4-(4-methylthiazol-5-yl)phenyl)ethyl)-1-((S)-2-(4-(5-((1-((1-(((7-(8-ethyl-7-fluoro-3-hydroxynaphthalen-1-yl)-8-fluoro-4-((S)-6-hydroxy-6-methyl-1,4-oxazepan-4-yl)pyrido[4,3-d]pyrimidin-2-yl)oxy)methyl)cyclopropyl)methyl)piperidin-4-yl)oxy)pyrazin-2-yl)-1H-1,2,3-triazol-1-yl)-3-methylbutanoyl)-4-hydroxypyrrolidine-2-carboxamide], for which the IC50 in experiment [1] (Homo sapiens) worked out at 4.4 nM; in experiment [2], 15 nM; in experiment [3], 8.4 nM; in experiment [4] (setting [5]) it was 5.3 nM.
